# Laboratory results reported in patent US12208080B2, “Compositions and methods for modulation of extracellular vesicle release and treatment of neurological disorders” (GEORGE MASON RESEARCH FOUNDATION, INC., priority 2018, dated 2025).
# Assays:
# [1] = tested on: HIV-1 infected monocytes (U1); assay: Western blot/densitometry of intracellular viral and ESCRT proteins in U1 cells; type: cell-based
# Protocol: FIGS. 15A-15C are graphs and gels showing cannabidiols lower intracellular viral transcription and downstream viral products. U1 cells (1×10^6) were treated with a titration of CBD (1, 5, 10 μM) and THC (1, 5, 10 μg/mL) every day for 5 days. A) Intracellular RNA was isolated and analyzed through RT-qPCR for HIV-1 viral transcripts TAR and env. Each bar represents an average of three independent replicates. B) U1 cells (2×10^6) were treated with a titration of CBD (1, 5, 10 μM) every day for 5 days. Cells pellets were lysed, run through SDS-PAGE, and western blotted for (p-)/NF-κB, autophagosomal markers (p63, LC3), EV biogenesis marker VPS4, viral markers (gp120, Nef, p24), and Actin. C) U1 cells (5×10^6) were treated±CBD (10 μM) and Flavopiridol hydrochloride (50 nM; indicated as Flavo) and incubated for the following time points: 0 minutes, 2 hours and 6 hours. Cells were cross-linked with 1% formaldehyde solution and ChIP-ed for IgG and Pol II. ChIP DNA samples were analyzed via qPCR for TAR and env. Student's t-test was used for statistical analysis, where *p-value≤0.05; **p-value≤0.01, ***p-value≤0.001.
# FIGS. 16A-16E are graphs showing normalized densitometry analysis of CBD lowering intracellular […] in HIV-1 infected monocytes. (A) Nef, (B) Pr55, (C) p24, (D) VPS4, and (E) CHMP6 densitometry counts were performed on the Western blot data from FIG. 4B, all of which were normalized to Actin levels.
# Laemmli buffer was added to sample cell lysates (10-20 μg) or NT80/82 pellets. Lysates were heated at 95° C. for 3 min and 15 μL of sample was loaded onto a 4-20% Tris/glycine gel (Invitrogen). When analyzing NT80/82 pellets, samples were heated at 95° C. for 3 min, vortexed, and then heated two additional times to release captured material from NT80/82 beads. Following the release of captured cargo, the total sample was then loaded on to a 4-20% Tris-Glycine gel (Invitrogen). Gels were run at 100 V and transferred onto Immobilon PVDF membranes (Millipore) at 50 mA overnight. Membranes were blocked in 5% milk in PBS with 0.1% Tween-20 (PBS-T) for 2 h at 4° C., then incubated overnight at 4° C. in PBS-T with the appropriate primary antibody ((α-p24 (Cat: 4121; NIH AIDS Reagent Program), α-Nef (Cat: 3689; NIH AIDS Reagent Program), α-gp120 (Cat: 522; NIH AIDS Reagent Program), α-CD81 (Cat: EXOAB-CD81A-1; SBI), α-VPS4 (Cat: sc-32922; Santa Cruz Biotechnology), α-CHMP6 (Cat: sc-67231; Santa Cruz Biotechnology), α-Actin (ab-49900; Abcam), α-CD63 (Cat: EXOAB-CD63A-1; Systems Biosciences), α-SQSTM1/p62 (Cat: 5114; Cell Signaling Technology), α-MAP LC3 α/β (Cat: sc-398822; Santa Crux Biotechnology), α-Alix (Cat: sc-49268; Santa Cruz Biotechnology), α-ATG12 (Cat: sc-271688; Santa Cruz Biotechnology), α-Beclin 1 (Cat: sc-48341; Santa Cruz Biotechnology)). Membranes were washed with PBS-T and incubated for 2 h with the indicated HRP-conjugated secondary antibody at 4° C. HRP luminescence was activated with Clarity Western ECL Substrate (Bio-Rad) and visualized by the Molecular Imager ChemiDoc Touch system (Bio-Rad).
# ImageJ software was used to conduct densitometry analysis on the kinase and western blot images. Background measurements were deducted from each lane to account for exposure, followed by normalization of each lane to each respective Actin measurements. […] Percent changes were calculated by subtracting normalized lane measurements from the normalized control lane.
# This is potentially due innate differences in the abundance of these mRNAs. […]
# [2] = tested on: autophagy proteins (p62 and LC3) in U1 cells; assay: Autophagy proteins over time in U1 cells and their EVs (Western blot); type: cell-based
# Protocol: FIGS. 18A-18B are gels showing CBD promotes autophagy turnover, resulting in a decrease in extracellular autophagosomal secretion. A) U1 cells (1×10^6) were treated±CBD (10 μM) for the following incubation periods: 0, 6, 24, and 48 hours. Cells were pelleted and lysed, exosomes from supernatants were enriched with NT80/82 beads overnight at 4° C. Samples were run through SDS-PAGE and western blotted for autophagy proteins (p62 and LC3), and Actin. B) U1 cells (1×10^6) were treated±10 μM CBD (every day), Rapamycin (50 nM), INK128 (50 nM), Bafilomycin A1 (50 nM), SB 203580 (20 μM), Wortmannin (2 nM) for a 5-day incubation period. Cells were pelleted and lysed, exosomes from supernatants were enriched using NT80/82 beads overnight at 4° C. Samples were run through SDS-PAGE and western blotted for autophagy proteins (p62, LC3, ATG12-ATG5, ATG12, Beclin-1), and Actin.
# FIGS. 19A-19E are graphs showing normalized densitometry analysis of CBD treatment of HIV-1 infected monocytes over time and autophagy. Intracellular (A) p62, (B) LC3 I, and (C) LC3 II levels, and extracellular (D) p62, and (E) LC3 I levels were counted on the Western blot data from FIG. 5A through densitometry analysis, followed by normalization to Actin levels.
# We have previously described a complex relationship between the intracellular autophagy pathway, secretory autophagy pathway, and EVs, where regulation of the autophagy pathway in infected cells can result in the blocking of viral protein degradation and, in turn, the export of viral products through EVs. Based on this, we next asked whether CBD had any effect on EV release by examining the secretory autophagy pathway. In order to evaluate the levels of intracellular autophagy proteins in HIV-1 infected cells, U1 cells were treated with CBD (10 μM) for 0, 6, 24, and 48 hours, followed by Western blot analysis for autophagosomal markers, p62 and LC3 I/II (FIG. 18A). […] In order to examine any alterations that CBD might have on secretory autophagy in HIV-1 infected monocytes, EVs were enriched from the supernatants using NT80/82 and analyzed by Western blot for changes in secreted autophagosome proteins. […] This is in line with numerous studies which have shown the HIV-1 viral proteins Tat and Nef to be involved in autophagy deregulation in infected cells.
# [3] = 10 μM every day for 5 days, FIG. 16
# [4] = CBD 1, 5, 10 μM every day for 5 days
smiles,measurement,setting,value
"C=C(C)[C@@H]1CCC(C)=C[C@H]1c1c(O)cc(CCCCC)cc1O [CBD, 2-[1R-3-methyl-6R-(1-methylethenyl)-2-cyclohexen-1-yl]-5-pentyl-1,3-benzenediol]",reduction in intracellular Nef (densitometry),[1]; [3],62%
same,reduction in intracellular Pr55 (densitometry),[1]; [3],99%
same,reduction in intracellular p24 (densitometry),[1]; [3],76%
same,intracellular CHMP6 (ESCRT-III),[1]; [4],slight increase
same,intracellular VPS4,[1]; [4],slight increase
same,LC3 I in secreted EVs,"[2]; 10 μM, 6, 24, 48 hours vs untreated",overall lower level of LC3 I
same,intracellular LC3 II,"[2]; 10 μM, 6- and 24-hour vs controls",higher levels of LC3 II
same,extracellular (EV) p62,"[2]; 10 μM, from the 6-hour time point onwards vs untreated",lower p62 levels
same,intracellular p62,"[2]; 10 μM, starting at 24-hour, peaking at 48-hour, FIG. 18A",time dependent decrease
same,intracellular LC3 I,"[2]; 10 μM, up to 24 hours vs untreated",decrease in LC3 I levels
